From PMC5897141 (Journal of neurochemistry, 2018)
“And” between values parts separate entries of the source, which are not always exact repeats. Identical values can stand only once. Like-named read-outs stand apart in the source and are kept apart here.

Legend:
VAChT [1] = type: in vivo, cynomolgus macaques
[2] = HPLC radio-metabolite analysis of arterial plasma; type: in vivo, cynomolgus macaques
VAChT [3] = assay: Test-retest reproducibility of BPND; type: in vivo, cynomolgus macaques; conditions: mean ± SD, 3 NHP subjects
VAChT [4] = conditions: Lassen plot, baseline vs (-)-vesamicol 0.125 mg/kg; subject A
VAChT [5] = conditions: ref Tu et al. 2015; cited from earlier work
σ1/2 receptors = conditions: cited from earlier work
VAChT [6] = conditions: NHP brain; ref Nishiyama et al. 2014; cited from earlier work
[7] = 1TCM, striatum, mean ± SD, n = 3
[8] = 2TCM, cerebellum-hemispheres, mean ± SD, n = 3
[9] = 2TCM, frontal cortex, mean ± SD, n = 3
[10] = 2TCM, hippocampus, mean ± SD, n = 3
[11] = 2TCM, midbrain, mean ± SD, n = 3
[12] = 2TCM, occipital cortex, mean ± SD, n = 3
[13] = 2TCM, striatum, mean ± SD, n = 3
[14] = 2TCM, temporal cortex, mean ± SD, n = 3
[15] = 2TCM, thalamus, mean ± SD, n = 3
[16] = 2TCM, white matter, mean ± SD, n = 3
[17] = LoganAIF, striatum, mean ± SD, n = 3
[18] = MA1, striatum, mean ± SD, n = 3
[19] = RTM, reference cerebellum-hemispheres, striatum, mean ± SD, n = 7
[20] = SRTM, reference cerebellum-hemispheres, striatum, mean ± SD, n = 7
[21] = SRTM, frontal cortex, mean ± SD, n = 7
[22] = SRTM, hippocampus, mean ± SD, n = 7
[23] = SRTM, middle brain, mean ± SD, n = 7
[24] = SRTM, occipital cortex, mean ± SD, n = 7
[25] = SRTM, temporal cortex, mean ± SD, n = 7
[26] = SRTM, thalamus, mean ± SD, n = 7
[27] = SRTM, white matter, mean ± SD, n = 7
[28] = after 20 min p.i., 3 NHP subjects

## O=C(c1ccc(F)cc1)C1CCN(C2Cc3c(cccc3OCCF)CC2O)CC1 (single isomer, unassigned; (-)) [[^18F]VAT, ((-)-(1-(-8-(2-fluoroethoxy)-3-hydroxy-1,2,3,4-tetrahydronaphthalen-2-yl)piperidin-4-yl)(4-fluorophenyl)-methanone)]
VAChT [1]; [7]
  BPND: 2.69 ± 1.1 (24%)
  DVR: 3.70 ± 1.1 (17%)
  K1: 0.221 ± 0.20 (52%) mL·cm^−3·min^−1
  VT: 22.12 ± 14.1 (37%) mL· cm^−3
  k2: 0.009 ± 0.004 (26%) min^−1
VAChT [1]; 2TCM, cerebellum-hemispheres (reference region), mean ± SD, n = 3
  BPND = DVR-1: 0.00 ± 0.00
VAChT [1]; [8]
  K1: 0.144 ± 0.093 mL·cm^−3·min^−1
  VT: 5.85 ± 5.88 mL· cm^−3
  k2: 0.063 ± 0.010 min⁻¹
  k3: 0.007 ± 0.005 min⁻¹
  k3 / k4: 1.09 ± 0.84
  k4: 0.004 ± 0.003 min⁻¹
VAChT [1]; [9]
  BPND = DVR-1: 0.44 ± 0.10
  K1: 0.103 ± 0.046 mL·cm^−3·min^−1
  VT: 7.13 ± 6.52 mL· cm^−3
  k2: 0.035 ± 0.004 min⁻¹
  k3: 0.010 ± 0.012 min⁻¹
  k3 / k4: 0.94 ± 0.64
  k4: 0.004 ± 0.001 min⁻¹
VAChT [1]; [10]
  BPND = DVR-1: 0.61 ± 0.41
  K1: 0.102 ± 0.059 mL·cm^−3·min^−1
  VT: 7.46 ± 5.56 mL· cm^−3
  k2: 0.035 ± 0.008 min⁻¹
  k3: 0.014 ± 0.010 min⁻¹
  k3 / k4: 1.15 ± 0.62
  k4: 0.014 ± 0.013 min⁻¹
VAChT [1]; [11]
  BPND = DVR-1: 0.18 ± 0.13
  K1: 0.107 ± 0.091 mL·cm^−3·min^−1
  VT: 5.61 ± 4.55 mL· cm^−3
  k2: 0.039 ± 0.009 min⁻¹
  k3: 0.007 ± 0.003 min⁻¹
  k3 / k4: 1.06 ± 0.30
  k4: 0.006 ± 0.001 min⁻¹
VAChT [1]; [12]
  BPND = DVR-1: 0.12 ± 0.075
  K1: 0.101 ± 0.054 mL·cm^−3·min^−1
  VT: 5.51 ± 4.97 mL· cm^−3
  k2: 0.039 ± 0.005 min⁻¹
  k3: 0.004 ± 0.001 min⁻¹
  k3 / k4: 0.82 ± 0.53
  k4: 0.005 ± 0.001 min⁻¹
VAChT [1]; [13]
  DVR: 4.37 ± 0.34 (4%)
  K1: 0.113 ± 0.068 (35%) mL·cm^−3·min^−1 and 0.113 ± 0.068 mL·cm^−3·min^−1
  VT: 22.31 ± 20.7 (54%) mL· cm^−3 and 22.31 ± 20.71 mL· cm^−3
  k2: 0.027 ± 0.005 (11%) min^−1 and 0.027 ± 0.005 min^−1
  k3: 0.019 ± 0.009 (27%) min^−1 and 0.019 ± 0.009 min^−1
  k3 / k4: 3.52 ± 1.14
  k4: 0.005 ± 0.001 (12%) min^−1 and 0.005 ± 0.001 min^−1
VAChT [1]; [14]
  BPND = DVR-1: 0.097 ± 0.076
  K1: 0.086 ± 0.042 mL·cm^−3·min^−1
  VT: 5.23 ± 4.45 mL· cm^−3
  k2: 0.033 ± 0.003 min⁻¹
  k3: 0.003 ± 0.001 min⁻¹
  k3 / k4: 0.74 ± 0.48
  k4: 0.005 ± 0.002 min⁻¹
VAChT [1]; [15]
  BPND = DVR-1: 1.16 ± 0.24
  K1: 0.112 ± 0.061 mL·cm^−3·min^−1
  VT: 10.09 ± 8.25 mL· cm^−3
  k2: 0.030 ± 0.004 min⁻¹
  k3: 0.006 ± 0.002 min⁻¹
  k3 / k4: 1.38 ± 0.26
  k4: 0.004 ± 0.001 min⁻¹
VAChT [1]; 2TCM, vermis, mean ± SD, n = 3
  BPND = DVR-1: 0.22 ± 0.55
  K1: 0.180 ± 0.069 mL·cm^−3·min^−1
  VT: 4.77 ± 2.72 mL· cm^−3
  k2: 0.068 ± 0.005 min⁻¹
  k3: 0.004 ± 0.003 min⁻¹
  k3 / k4: 0.75 ± 0.43
  k4: 0.005 ± 0.001 min⁻¹
VAChT [1]; [16]
  BPND = DVR-1: 0.21 ± 0.13
  K1: 0.065 ± 0.041 mL·cm^−3·min^−1
  VT: 5.66 ± 4.49 mL· cm^−3
  k2: 0.026 ± 0.005 min⁻¹
  k3: 0.006 ± 0.002 min⁻¹
  k3 / k4: 1.01 ± 0.32
  k4: 0.006 ± 0.001 min⁻¹
VAChT [1]; [17]
  BPND: 2.58 ± 0.9 (20%)
  DVR: 3.58 ± 0.9 (15%)
  VT: 16.87 ± 17 (58%) mL· cm^−3
VAChT [1]; LoganREF, reference cerebellum-hemispheres, striatum, mean ± SD, n = 7
  DVR: 3.11 ± 0.43 (5%)
VAChT [1]; LoganREF, frontal cortex, mean ± SD, n = 7
  BPND: 0.29 ± 0.2
VAChT [1]; LoganREF, hippocampus, mean ± SD, n = 7
  BPND: 0.47 ± 0.3
VAChT [1]; LoganREF, middle brain, mean ± SD, n = 7
  BPND: 0.15 ± 0.2
VAChT [1]; LoganREF, occipital cortex, mean ± SD, n = 7
  BPND: 0.13 ± 0.1
VAChT [1]; LoganREF, scan duration for analysis 45 min, mean ± SD, n = 7
  Striatal BPND: 1.60 ± 0.58
VAChT [1]; LoganREF, scan duration for analysis 60 min, mean ± SD, n = 7
  Striatal BPND: 1.69 ± 0.49
VAChT [1]; LoganREF, scan duration for analysis 90 min, mean ± SD, n = 7
  Striatal BPND: 1.86 ± 0.45
VAChT [1]; LoganREF, temporal cortex, mean ± SD, n = 7
  BPND: 0.11 ± 0.1
VAChT [1]; LoganREF, thalamus, mean ± SD, n = 7
  BPND: 0.76 ± 0.3
VAChT [1]; LoganREF, vermis, mean ± SD, n = 7
  BPND: 0.063 ± 0.2
VAChT [1]; LoganREF, white matter, mean ± SD, n = 7
  BPND: 0.17 ± 0.2
VAChT [1]; [18]
  BPND: 2.17 ± 1 (27%)
  DVR: 3.17 ± 1 (18%)
  VT: 21.45 ± 14 (38%) mL· cm^−3
VAChT [1]; [19]
  BPND: 2.11 ± 0.46 (8%)
  DVR: 3.11 ± 0.46 (6%)
  R1 = K1/K1′: ( ^*** R1 = K1/K1′ 0.847 ± 0.08 (4%))
  k2: 0.17 ± 0.16 (36%) min^−1
  k3: 0.05 ± 0.04 (30%) min^−1
  k4: 0.025 ± 0.02 (30%) min^−1
VAChT [1]; [20]
  DVR: 3.15 ± 0.46 (6%)
  k2: 0.032 ± 0.007 (8%) min^−1 and 0.032 ± 0.01 min^−1
VAChT [1]; [21]
  BPND: 0.32 ± 0.2
  R1: 0.82 ± 0.3
  k2: 0.055 ± 0.02 min⁻¹
VAChT [1]; [22]
  BPND: 0.48 ± 0.2
  R1: 0.79 ± 0.1
  k2: 0.053 ± 0.04 min⁻¹
VAChT [1]; [23]
  BPND: 0.17 ± 0.1
  R1: 0.74 ± 0.2
  k2: 0.066 ± 0.1 min⁻¹
VAChT [1]; [24]
  BPND: 0.12 ± 0.1
  R1: 0.81 ± 0.3
  k2: 0.053 ± 0.02 min⁻¹
VAChT [1]; SRTM, scan duration for analysis 45 min, mean ± SD, n = 7
  Striatal BPND: 2.67 ± 1.14
VAChT [1]; SRTM, scan duration for analysis 60 min, mean ± SD, n = 7
  Striatal BPND: 2.14 ± 0.49
VAChT [1]; SRTM, scan duration for analysis 90 min, mean ± SD, n = 7
  Striatal BPND: 2.18 ± 0.37
VAChT [1]; [25]
  BPND: 0.10 ± 0.08
  R1: 0.63 ± 0.2
  k2: 0.074 ± 0.07 min⁻¹
VAChT [1]; [26]
  BPND: 0.79 ± 0.3
  R1: 0.95 ± 0.2
  k2: 0.059 ± 0.02 min⁻¹
VAChT [1]; SRTM, vermis, mean ± SD, n = 7
  BPND: 0.081 ± 0.07
  R1: 1.08 ± 0.4
  k2: 0.064 ± 0.6 min⁻¹
VAChT [1]; [27]
  BPND: 0.17 ± 0.2
  R1: 0.47 ± 0.1
  k2: 0.032 ± 0.01 min⁻¹
VAChT [1]; after tracer injection
  time of peak striatal uptake: about 20 min
[2]; 2 min post-injection
  percentile of unmetabolized parental tracer in plasma: 96% ± 1
[2]; 90 min post-injection
  percentile of unmetabolized parental tracer in plasma: 14% ± 2.7
[2]; [28]
  parent tracer as share of total radioactivity in plasma: over 60%
  polar metabolites as share of total radioactivity in plasma: ~ 40%
[2]; post-injection
  time of peak concentration of parental compound in plasma: less than 1 min
VAChT [3]; LoganREF, frontal cortex
  retest BPND: 0.29 ± 0.08
  test BPND: 0.29 ± 0.06
VAChT [3]; LoganREF, hippocampus
  retest BPND: 0.47 ± 0.19
  test BPND: 0.46 ± 0.18
VAChT [3]; LoganREF, striatum
  retest BPND: 2.26 ± 0.46
  test BPND: 2.39 ± 0.73
VAChT [3]; LoganREF, thalamus
  retest BPND: 0.74 ± 0.09
  test BPND: 0.70 ± 0.10
VAChT [3]; SRTM, frontal cortex
  retest BPND: 0.30 ± 0.03
  test BPND: 0.32 ± 0.07
VAChT [3]; SRTM, hippocampus
  retest BPND: 0.48 ± 0.14
  test BPND: 0.46 ± 0.16
VAChT [3]; SRTM, striatum
  retest BPND: 2.15 ± 0.38
  test BPND: 2.38 ± 0.69
VAChT [3]; SRTM, thalamus
  retest BPND: 0.77 ± 0.12
  test BPND: 0.77 ± 0.13
VAChT [4]
  VND (non-displaceable distribution volume): ~ 1.27
VAChT [5]
  Ki: 0.59 nM
σ1/2 receptors; ref Tu et al. 2015
  selectivity for VAChT versus σ1/2 receptors: over 10,000 fold

## Cc1cccc2c1C[C@@H](O)[C@H](N1CCN(c3ccccc3N)CC1)C2 (relative stereo) [[^11C](R,R)HAPT, (R,R)-trans-8-methyl-2-hydroxy-3-[4-[2-aminophenyl]-piperizinyl]tetralin, reference compound]
σ1/2 receptors; ref Shiba et al. 2006, Kawamura et al. 2006
  selectivity for VAChT versus σ1/2 receptors: 10 fold
VAChT [6]
  time-activity curves peak time post injection: ≤ 20 min
